The record followed here is the supplement of paper PMC9549728.

Holding throughout (test): IC50 (viability, PrestoBlue) (log10 nM)
Holding throughout (details): exposure time: 72 h

The subject of assay [1] is murine normal gastric organoid. The procedure, abridged:
(§1)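 Murine gastric corpus organoids, either uninduced or Cre-induced (RAS-activated, WNT-activated or diffuse), were broken up mechanically and seeded in 15 μl Matrigel beneath 45 μl medium in 384-well plates pre-spotted with DMSO-diluted compounds at nine final concentrations spanning 6.7 to 25,004 nM. After 72 h of incubation, PrestoBlue was added at 1× final for 3 h at 37°C and fluorescence was read at 560/590 nm. Half-maximal inhibitory concentrations were fitted by non-linear regression in Prism. Values are expressed in log10 nM as the mean of three passages × two wells.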

For assay [2], the system named is murine gastric organoid WNT-activated (Apc fl/fl; Tp53 R172H). The procedure, abridged: as §1
Assay [3] concerns murine gastric organoid RAS-activated (Kras G12D; Tp53 R172H). The procedure, abridged: as §1
Assay [4] concerns murine gastric organoid diffuse (Cdh1 fl/fl; Apc fl/fl). The procedure, abridged:
as §1

For `Cc1sc2c(c1C)C(c1ccc(Cl)cc1)=N[C@@H](CC(=O)Nc1ccc(O)cc1)c1nnc(C)n1-2` [OTX-015], the “IC50 (log10 nM)” value in assay [1] amounted to 2.22; in assay [2], 2.85; in assay [3] it was 3.11; in assay [4], 2.47.

Take `O=C(O)CCCc1ccc(N(CCCl)CCCl)cc1` [Chlorambucil]: the “IC50 (log10 nM)” value was determined as 3.32 in assay [1], 3.92 in assay [2], 2.93 in assay [3] and 2.48 in assay [4].

`O=C(/C=C/c1cccc(S(=O)(=O)Nc2ccccc2)c1)NO` [Belinostat]: the “IC50 (log10 nM)” value turned out to be 3.2 in assay [1], 3.27 in assay [2], 2.61 in assay [3] and 3.29 in assay [4].

Regarding `COc1cc2/c(=N/c3ccc(Br)cc3F)nc[nH]c2cc1OCC1CCN(C)CC1` [Vandetanib], the “IC50 (log10 nM)” value in assay [1] stood at 3.95; in assay [2], 2.64; in assay [3], 2.63; in assay [4], 2.76.

Take `C[C@H](NC(=O)/C(C#N)=C/c1cccc(Br)n1)c1ccccc1` [WP1066]: the “IC50 (log10 nM)” value in assay [1] was 3.47; in assay [2], 3.26; in assay [3], 3.49; in assay [4], 3.52.

With `COc1cc(Nc2ncc3c(n2)-c2ccc(Cl)cc2C(c2c(F)cccc2OC)=NC3)ccc1C(=O)O` [Alisertib], the “IC50 (log10 nM)” value in assay [1] stood at 2.47; in assay [2] it was 3.02; in assay [3] it was 2; in assay [4], 2.98.

With `Nc1nc(=S)c2[nH]cnc2[nH]1` [6-Thioguanine], the “IC50 (log10 nM)” value came to 3.73 in assay [1], 1.35 in assay [2], 3.8 in assay [3] and 4.29 in assay [4].

Consider `CO[C@H]1C[C@@H]2CC[C@@H](C)[C@@](O)(O2)C(=O)C(=O)N2CCCC[C@H]2C(=O)O[C@H]([C@H](C)C[C@@H]2CC[C@@H](OCCO)[C@H](OC)C2)CC(=O)[C@H](C)/C=C(\C)[C@@H](O)[C@@H](OC)C(=O)[C@H](C)C[C@H](C)/C=C/C=C/C=C/1C` [Everolimus], for which the “IC50 (log10 nM)” value in assay [1] stood at 3.4; in assay [2], 3.26; in assay [3], 3.26; in assay [4], 3.31.

On to `C#Cc1cccc(Nc2ncnc3cc(OCCOC)c(OCCOC)cc23)c1` [Erlotinib], for which the “IC50 (log10 nM)” value in assay [1] is 2.58; in assay [2], 2.67; in assay [3] it was more than 4.4; in assay [4] it was 2.97.

On to `CC(=O)Nc1ccc(C(=O)Nc2ccccc2N)cc1` [Tacedinaline], for which the “IC50 (log10 nM)” value in assay [1] came to 4.34; in assay [2], 4.35; in assay [3], 3.87; in assay [4], 3.97.

For `O=C(Nc1cccc(Cl)c1)Nc1ncc(CCNc2ncnc3ccsc23)s1` [SNS-314], the “IC50 (log10 nM)” value was determined as 3.2 in assay [1], 2.87 in assay [2], 2.47 in assay [3] and 4.02 in assay [4].

As to `Cc1nc(C(=O)NCC(=O)O)c(O)c2ccc(Oc3ccccc3)cc12` [Roxadustat (FG-4592)], the “IC50 (log10 nM)” value in assay [1] is 2.38; in assay [2], 1.23; in assay [3], less than 0.826; in assay [4] it was 3.27.

In the case of `COc1cc2ncnc(Nc3ccc(F)c(Cl)c3)c2cc1OCCCN1CCOCC1` [Gefitinib], the “IC50 (log10 nM)” value in assay [1] came to 1.98; in assay [2], 2.38; in assay [3], 4.06; in assay [4], 2.65.

Consider `NC(=O)N1CCC(CC(=O)N2CCC([C@H]3c4ncc(Br)cc4CCc4cc(Cl)cc(Br)c43)CC2)CC1` [lonafarnib], for which the “IC50 (log10 nM)” value in assay [1] stood at 3.33; in assay [2] it was 3.47; in assay [3] it was 3.03; in assay [4] it was 4.3.

Take `N[C@@H](Cc1ccc(N(CCCl)CCCl)cc1)C(=O)O` [Melphalan]: the “IC50 (log10 nM)” value in assay [1] turned out to be 3.09; in assay [2], 2.26; in assay [3] it was 3.27; in assay [4] it was 3.34.
